Test results from article PMC5913971, “A Novel Piperazine-Based Drug Lead for Cryptosporidiosis from the Medicines for Malaria Venture Open-Access Malaria Box” (Antimicrobial Agents and Chemotherapy, 2018).
Where two headings read alike, the source gives them in different places. Each block holds one compound with its values, some of them ahead of it.

How the values were obtained:
[1] = system: C. parvum Iowa isolate; experiment: Immunofluorescence assay for C. parvum growth inhibition in HCT-8 cells; format: cell-based, Cryptosporidium parvum; details: Table S1, confirmed screening hits, read-out: C. parvum EC50 (95% CI)
Description: Inhibition of C. parvum growth was measured as described previously ([20]). Oocysts were excysted by treatment with 10 mM hydrochloric acid (10 min at 37°C), followed by exposure to 2 mM sodium taurocholate (Sigma-Aldrich) in PBS for 10 min at 16°C. Excysted oocysts were then added to >95% confluent HCT-8 cell monolayers in 384-well plates at a concentration of 5,500 Iowa isolate oocysts per well. For C. parvum field isolates, the inoculum required to yield an infection level similar to that produced by 5,500 Iowa isolate oocysts per well was determined and was used for subsequent assays of parasite inhibition. Compounds were added just before or 3 h after infection, and assay plates were incubated for 48 h postinfection at 37°C under 5% CO2. Wells were then washed three times with PBS containing 111 mM D-galactose, fixed with 4% paraformaldehyde in PBS for 15 min at room temperature, permeabilized with 0.25% Triton X-100 for 10 min at 37°C, washed three times with PBS with 0.1% Tween 20, and blocked with 4% bovine serum albumin (BSA) in PBS for 2 h at 37°C or 4°C overnight. Parasitophorous vacuoles were stained with 1.33 μg/ml of fluorescein-labeled Vicia villosa lectin (Vector Laboratories) diluted in 1% BSA in PBS with 0.1% Tween 20 for 1 h at 37°C, followed by the addition of Hoechst 33258 (AnaSpec) at a final concentration of 0.09 mM diluted in water for another 15 min at 37°C. Wells were then washed five times with PBS containing 0.1% Tween 20. A Nikon Eclipse TE2000 epifluorescence microscope with an automated stage was programmed using NIS-Elements Advanced Research software (Nikon, USA) to focus on the center of each well and take a 3-by-3 composite image using an EXi Blue fluorescence microscopy camera (QImaging, Canada) with a 20× objective (numerical aperture, 0.45). Nucleus and parasite images were exported separately as .tif files and were analyzed using macros developed on the ImageJ platform (National Institutes of Health) ([20]). The only modification from the published macro used to count parasites was that the lower size threshold for parasites was decreased from 16.5 to 4 pixels (1 pixel = 0.65 μm). Graphs were plotted, and half-maximal effective concentration (EC50) and 90% effective concentration (EC90) values were calculated using GraphPad Prism software, version 6.01. For every C. parvum field isolate experiment, a dose-response experiment against the C. parvum Iowa isolate was performed simultaneously as a reference.

[2] = system: C. parvum Iowa isolate; experiment: NOD SCID gamma (NSG) mouse model of chronic cryptosporidiosis, fecal qPCR; format: in vivo, NOD SCID gamma mice; details: for short-term efficacy on oocyst shedding in NSG mice: Fig. 2B, dose not given
Description: All NOD SCID gamma mouse studies were performed in compliance with animal care guidelines and were approved by the University of Vermont Institutional Animal Care and Use Committee. NOD SCID gamma mice with normal flora (NOD.Cg-Prkdc^scid Il2rg^tm1Wjl/SzJ) ([38]) were purchased from The Jackson Laboratory (Bar Harbor, ME, USA) and were housed for at least a week for acclimatization. At the age of 4 to 5 weeks, mice were infected with 10^5 C. parvum Iowa isolate oocysts. Fecal oocyst shedding is detected 6 days after infection using a quantitative PCR (qPCR assay), so treatment was started on day 7 after infection. Mice (4 per experimental group) were treated either orally (p.o.) with MMV665917 at 30 or 60 mg/kg BID, intraperitoneally (i.p.) with MMV665917 at 60 mg/kg BID, or p.o. with 1,000 mg/kg paromomycin BID. MMV665917 was suspended in DMSO, sonicated three times, for 30 s each time, to obtain a fine suspension, aliquoted, and stored at −80°C for <10 days. On the day of treatment, aliquots of MMV665917 diluted in DMSO were thawed, mixed well using a vortexer, diluted with 1% HPMC, sonicated as before (three times for 30 s each time), mixed well, and given to mice either p.o. or by i.p. injection. A final concentration of 5% DMSO was used in 100 μl of 1% HPMC per dose. For the additional Malaria Box compounds and compound variants tested, the doses were prepared in the same way, and the specific dosages tested are given in Table S3 in the supplemental material. Mice were treated for either 4 or 7 days, allowed to recover for a week, and then sacrificed. Oocyst shedding in feces was monitored throughout by qPCR, including time points while on treatment and while monitoring for relapsed infection following completion of treatment in Fig. 2A.

[3] = system: C. parvum Iowa isolate; experiment: IFN-γ knockout mouse model of acute cryptosporidiosis; format: in vivo, C57BL/6 IFN-γ−/− mice; details: dose not given
Description: All interferon gamma (IFN-γ) knockout mouse studies were performed in compliance with animal care guidelines and were approved by the Explora BioLabs (San Diego, CA) Institutional Animal Care and Use Committee. Four-week-old female C57BL/6 IFN-γ^−/− mice with normal flora were purchased from The Jackson Laboratory and were acclimated for 3 days prior to infection by oral gavage with 10^6 C. parvum Iowa isolate oocysts (Sterling Parasitology Laboratory, University of Arizona) suspended in sterile distilled water. At various times postinfection, mice were treated with the compound vehicle alone, clofazimine (used as a positive control), or MMV665917. As described previously, fecal parasite shedding was quantified at various times postinfection by isolating oocysts using a sucrose gradient centrifugation method ([39]), followed by staining for immunofluorescence microscopy using a fluorescein isothiocyanate-conjugated mouse anti-Cryptosporidium antibody (0.25 μg per sample) and analysis with a Guava easyCyte flow cytometer and CytoSoft data acquisition and analysis software (version 5.3; Guava Technologies, Inc.). Oocyst counts per milliliter of sample were exported to Excel (Microsoft Corp.) and were normalized to counts per milligram of feces. Final data analysis and graphing were carried out using GraphPad Prism software (version 6.01).

[4] = system: C. parvum; experiment: Parasite persistence (time-kill) assay in HCT-8 cells; format: cell-based, Cryptosporidium parvum; details: for parasite persistence: highest nontoxic concentrations, added 24 h after infection
Description: Excysted C. parvum oocysts were added to >90% confluent HCT-8 cells in 384-well plates. […] At ∼24 h (i.e., the time of compound addition) and at various time intervals thereafter, parasites were washed, fixed, permeabilized, stained, and imaged as for the C. parvum growth assay. For the extended-compound-exposure experiments, the medium and compound were replaced every 3 days. A separate 384-well plate was used for each time interval. Parasite numbers were normalized to host cell nucleus numbers and are expressed as the percentage of parasites per host cell nucleus. In order to fit parasite decay curves, the effect of drugs was isolated from expected changes in parasite numbers over time by expressing the number of parasites as the percentage of the number of parasites with the control, dimethyl sulfoxide (DMSO), for each time point. Exponential decay curves were fit using GraphPad Prism software, version 6.01, and curve validity was assessed using the replicates test.

[5] = dose 50 mg/kg, interval 12 h, duration 4 days

EC50 [1]: 1500 nM
SMILES: c1ccc(CNc2nc(Nc3ccccc3)nc3ccccc23)cc1 [MMV006169, C(Nc1nc(Nc2ccccc2)nc3ccccc13)c4ccccc4]
NSG efficacy [2, 5]: No

SMILES: CN(C)c1ccc(C(O)(c2ccc(N(C)C)cc2)c2ccc(N(C)C)cc2)cc1 [MMV665941, CN(C)c1ccc(cc1)C(O)(c2ccc(cc2)N(C)C)c3ccc(cc3)N(C)C]
EC50 ([1]; Cryptosporidium parvum, HCT-8): 830 nM
NSG efficacy [2, 5]: No

SMILES: NC[C@@H]1O[C@H](O[C@H]2[C@@H](O)[C@H](O[C@@H]3[C@@H](O)[C@H](N)C[C@H](N)[C@H]3O[C@H]3O[C@H](CO)[C@@H](O)[C@H](O)[C@H]3N)O[C@@H]2CO)[C@H](N)[C@@H](O)[C@@H]1O [paromomycin]
short-term efficacy on oocyst shedding in NSG mice [2]: ineffective
relapse after cessation of treatment ([2]; paromomycin 1,000 mg/kg p.o. BID, 7 days): relapsed promptly
efficacy in IFN-γ KO mouse model of acute infection [3]: good efficacy
parasiticidal or parasitistatic for C. parvum [4]: parasitistatic
percentage of host cells infected, extended treatment ([4]; day 13 of treatment, 12 × EC90, medium and drug replaced every 3 days): closely mirrored the pattern for the vehicle control
parasite persistence [4]: parasites persist

EC50 ([1]; Cryptosporidium parvum, HCT-8): 54 nM
SMILES: COc1cccc(C(=O)NC(c2ccc(C)cc2)c2cc(Cl)c3cccnc3c2O)c1 (centres unmarked) [MMV665969, COc1cccc(c1)C(=O)NC(c2ccc(C)cc2)c3cc(Cl)c4cccnc4c3O]
NSG efficacy [2, 5]: No

EC50 ([1]; Cryptosporidium parvum, HCT-8): 590 nM
SMILES: Oc1c(C(Nc2ccccn2)c2cccc(Oc3ccccc3)c2)ccc2cccnc12 (centres unmarked) [MMV665814, Oc1c(ccc2cccnc12)C(Nc3ccccn3)c4cccc(Oc5ccccc5)c4]
NSG efficacy [2, 5]: No

SMILES: CC(C)/N=c1\cc2n(-c3ccc(Cl)cc3)c3ccccc3nc-2cc1Nc1ccc(Cl)cc1 [clofazimine]
short-term efficacy on oocyst shedding in NSG mice [2]: completely lacked efficacy
efficacy in IFN-γ KO mouse model of acute infection [3]: confirmed
parasiticidal or parasitistatic for C. parvum [4]: parasitistatic
parasite persistence [4]: parasites persist

EC50 ([1]; Cryptosporidium parvum, HCT-8): 3300 nM
SMILES: O=C(Nc1nc(-c2ccccn2)cs1)c1ccccc1Br [MMV665909, Brc1ccccc1C(=O)Nc2nc(cs2)c3ccccn3]
NSG efficacy [2, 5]: No

SMILES: Cc1cccc(-n2ncc3c(=O)[nH]c(-n4nc(C)cc4N)nc32)c1 [MMV403679 v5, c31c(cnn1-c2cc(ccc2)C)C(=O)NC(=N3)n4c(cc(n4)C)N]
NSG efficacy ([2]; dose 100 mg/kg, interval 24 h, duration 7 days): No

EC50 ([1]; Cryptosporidium parvum, HCT-8): 1800 nM
SMILES: CSc1ccccc1C(=O)Nc1nc(-c2ccccn2)cs1 [MMV001246, CSc1ccccc1C(=O)Nc2nc(cs2)c3ccccn3]
NSG efficacy [2, 5]: No

SMILES: CC(=O)Oc1ccccc1C(=O)Nc1ncc([N+](=O)[O-])s1 [nitazoxanide]
short-term efficacy on oocyst shedding in NSG mice [2]: did not reduce oocyst shedding
parasiticidal or parasitistatic for C. parvum [4]: parasitistatic
parasite persistence [4]: parasites persist
